Measured values reported in patent US6946465B2, “Immunosuppressive effects of pteridine derivatives” (4 AZA Bioscience NV, priority 1999, dated 2005).
pIC50: −log10 of the molar value.

Assays:
Format in all cases: cell-based, human
[1] = tested on: highly purified T cells stimulated by immobilized anti-CD3 mAb; test: CD3 assay: T-cell proliferation stimulated by anti-CD3 mAb + PMA (BrdU); conditions: Table 1; anti-CD3 mAb + PMA 0.5 ng/ml, 48 h; read-out: CD 3 IC50
Description: (§1) Various models may be used for testing an immunosuppressive effect. In vivo, for example, different transplantation models are available. They are strongly influenced by different immunogenicities, depending on the donor and recipient species used and depending on the nature of the transplanted organ. The survival time of transplanted organs can thus be used to measure the suppression of the immune response. In vitro, the most used models are lymphocyte activation tests. Usually activation is measured via lymphocyte proliferation. Inhibition of proliferation thus always means immunosuppression under the experimental conditions applied. There exist different stimuli for lymphocyte activation: • a) co-culture of lymphocytes of […] (mixed lymphocyte reaction, hereinafter referred as MLR) in a so-called mixed lymphocyte culture test: lymphocytes expressing different minor and major antigens of the HLA-DR type (=alloantigens) activate each other non-specifically. • b) a CD3 assay here there is an activation of the T-lymphocytes via an exogenously added antibody (OKT3).
(§2) All reagents were dissolved in 0.5 ml dimethylsulfoxide (hereinafter referred as DMSO) and further diluted in culture medium before use for the following in vitro experiments. The commercially available culture medium consisted of RPMI-1640+10% foetal calf serum (FCS).
(§3) T cells were purified by removing non-T cells. Briefly, monocytes were removed by cold agglutination. The resulting lymphoid cells were further purified by a cell enrichment immunocolumn [Cellect Human T commercially available from Biotex, Edmonton, Alberta, Canada)] by a process of negative selection.
(§4) Highly purified T cells (10^6/ml) were stimulated by immobilized anti-CD3 or anti-CD28 monoclonal antibodies (hereinafter referred as mAb) in the presence of PMA. Anti-CD3 mAb (available from CLB, Amsterdam, Netherlands) were fixed on the 96-microwell plates by incubating the wells with 50 μl of mAb solution (1/800 dilution in culture medium). For anti-CD28 mAb (available from CLB, Amsterdam, Netherlands) 50 μl (1/650 dilution in culture medium) was added directly to the wells. Further, a 20 μl phorbol myristate acetate (hereinafter referred as PMA (commercially available from Sigma, St. Louis, Mo., USA) solution (final concentration: 0.5 ng/ml) was added. Subsequently, 20 μl of a compound described in some of the previous examples were added by serial dilution in triplicate wells. Finally 100 μl of the T-cell suspension (10^6/ml) was added. After 48-hour incubation at 37° C. in 5% CO2 20 μl of a bromo-deuridine (hereinafter referred as BrdU) 100 μM solution (commercially available as Cell Proliferation Elisa from Boehringer-Mannheim Belgium) was added to each well. After a further overnight incubation, T-cell proliferation was measured using a colorimetric immunoassay for qualification of cell proliferation based on the incorporation of BrdU during DNA synthesis. Optical density (hereinafter referred as OD) was measured by a Behring EL311 plate reader at 450 nm (reference wavelength: 690 nm). Inhibition of proliferation by a compound (drug) described in some of the previous examples was counted using the formula: [formula]

[2] = tested on: peripheral blood mononuclear cells (PBMC) with allogeneic PBMC or RPMI1788 stimulator cells; test: Mixed lymphocyte reaction (MLR) test, [3H]-thymidine incorporation; conditions: Table 1; 5 days incubation + 16 h thymidine
Description: as §1, §2
Peripheral blood mononuclear cells (hereinafter referred as PBMC) were isolated from heparinized peripheral blood by density gradient centrifugation over Lymphoprep (Nycomed, Maorstua, Norway). Allogeneic PBMC or Eppstein-Barr Virus-transformed human B cells [commercially available under the trade name RPM11788 (ATCC name CCL156)] which strongly express B7-1 and B7-2 antigens were used as stimulator cells after irradiation with 30 Gy. MLR was performed in triplicate wells. After 5 days incubation at 37° C., 1 μCi [^3 H]-thymidine was added to each cup. After a further 16 hours incubation, cells were harvested and counted in a β-counter. Inhibition of proliferation by a compound (drug) described in some of the previous examples was counted using the formula: [formula] wherein cpm is the thymidine count per minute. Assays for CD3 and CD 28

[3] = tested on: highly purified T cells stimulated by anti-CD28 mAb; test: CD28 assay: T-cell proliferation stimulated by anti-CD28 mAb + PMA (BrdU); conditions: Table 1; anti-CD28 mAb + PMA 0.5 ng/ml, 48 h
Description: as §1, §2, §3, §4

Structure (SMILES)	pIC50 [1]	pIC50 [2]	pIC50 [3]
Cn1c(=O)[nH]c(=O)c2nc(-c3ccccc3)c(-c3ccccc3)nc21 [Example 41, 1-methyl-6,7-diphenyllumazine]	4.60	4.46	4.60
CCCCN(CCCC)c1nc2c(nc1C#N)c(=O)n(C)c(=O)n2C [Example 56, 6-cyano-7-dibutylamino-1,3-dimethyl-lumazine]	3.82	4.92	3.94
CC(=O)Nc1nc2c(nc1C#N)c(=O)n(C)c(=O)n2C [Example 54, 6-cyano-7-acetenylamino-1,3-dimethyl-lumazine]	3.98	3.85	4.10
COc1nc2c(nc1C=Cc1ccccc1)c(=O)n(C)c(=O)n2C [Example 40, 7-methoxy-1,3-dimethyl-6-styryllumazine]	< 3.70	4.70	< 3.70
Cn1c(=O)c2nc(C#N)c(NC3CCCCC3)nc2n(C)c1=O [Example 55, 6-cyano-7-cyclohexylamino-1,3-dimethyl-lumazine]	4.04	4.82	4.04
Cn1c(=O)c2nc(-c3ccccc3)c(Cl)nc2n(C)c1=O [Example 34, 7-chloro-1,3-dimethyl-6-phenyllumazine]	7.10	5.43	7.15
CCCn1c(=O)c2nc(-c3ccccc3)c(O)nc2n(CCC)c1=O [Example 44, 7-hydroxy-6-phenyl-1,3-di-n-propyllumazine]	4.10	3.92	4.15
CCOC(=O)c1nc2c(=O)n(C)c(=O)n(C)c2nc1Cl [Example 48, 6-ethylcarboxylate-7-chloro-1,3-dimethyl-lumazine]	–	4.90	–
Cn1c(=O)c2nc(C=O)c(N3CCCCCC3)nc2n(C)c1=O [Example 68, 6-formyl-7-(1-azacycloheptyl)-1,3-dimethyl-lumazine]	4.10	4.10	3.94
CCOC(=O)CSc1nc2c(nc1C#N)c(=O)n(C)c(=O)n2C [Example 81, 6-cyano-7-ethylmercaptoacetate-1,3-dimethyllumazine]	–	4.91	–
Cc1nc2c(=O)n(C)c(=O)n(C)c2nc1C=Cc1ccccc1 [Example 76, 7-(2-phenylethenyl)-1,3,6-trimethyl-lumazine]	4.17	3.92	3.94
Cn1c(=O)c2nc(C3OCCO3)c(Cl)nc2n(C)c1=O [Example 49, 6-(1,3-dioxolanyl)-7-chloro-1,3-dimethyl-lumazine]	5.66	4.96	5.44
Cn1c(=O)c2ncc(C(Br)=Cc3ccccc3)nc2n(C)c1=O [Example 28, 7-(1-bromo-2-phenyl)ethenyl-1,3-dimethyllumazine]	5.62	5.57	5.57
Cn1c(=O)c2nc(C=Cc3ccccc3)cnc2n(C)c1=O [Example 79, 6-[2-phenylethenyl]-1,3-dimethyllumazine]	3.98	4.77	< 3.70
CCSC(C[N+](=O)[O-])c1cnc2c(n1)c(=O)n(C)c(=O)n2C (stereo not drawn) [Example 19, 6-[(1-ethylthio-2-nitro)ethyl]-1,3-dimethyl-lumazine]	6.46	5.35	7.05
CCCCNc1nc2c(nc1C(=O)OCC)c(=O)n(C)c(=O)n2C [Example 60, 6-ethylcarboxylate-7-n-butylamino-1,3-dimethyl-lumazine]	4.25	4.89	4.04
Cn1c(=O)c2nc(C#N)c(Cl)nc2n(C)c1=O [Example 47, 6-cyano-7-chloro-1,3-dimethyl-lumazine]	4.82	3.98	4.92

Structure (SMILES)	pIC50 [1]	pIC50 [2]	pIC50 [3]
CC(C)CNc1nc2c(nc1C#N)c(=O)n(C)c(=O)n2C [Example 52, 6-cyano-7-isobutylamino-1,3-dimethyl-lumazine]	3.94	3.94	4.10
Cn1c(=O)c2nc(C=O)c(NC3CC3)nc2n(C)c1=O [Example 70, 6-formyl-7-cyclopropylamino-1,3-dimethyl-lumazine]	4.10	4.10	3.94
Cn1c(=O)c2nc(C#N)c(-n3ccnc3)nc2n(C)c1=O [Example 57, 6-cyano-7-imidazolyl-1,3-dimethyl-lumazine]	4.77	4.32	4.82
Cn1c(=O)c2nc(Cl)c(N3CCCCC3)nc2n(C)c1=O [Example 75, 6-chloro-7-piperidyl-1,3-diimethyl-lumazine]	4.10	3.80	4.10
Cn1c(=O)c2nc(C=Cc3ccc(OC(F)(F)F)cc3)cnc2n(C)c1=O [Example 80, 6-[2-(p-trifluoromethoxyphenyl)ethenyl]-1,3-dimethyllumazine]	–	5.05	–
Cn1c(=O)c2nc(-c3ccccc3)c(S)nc2n(C)c1=O [Example 32, 1,3-dimethyl-6-phenyl-7-mercaptolumazine]	4.60	4.60	4.60
COC(=O)C=C(OC)c1cnc2c(n1)c(=O)n(C)c(=O)n2C [Example 16]	4.10	4.15	4.10
COC(=O)C(Br)=Cc1cnc2c(n1)c(=O)n(C)c(=O)n2C [Example 12, 6-(2-bromo-2-methoxycarbonyl-ethenyl)-1,3-dimethyllumazine]	6.24	–	7.10
CCOc1nc2c(nc1-c1ccccc1)c(=O)n(C)c(=O)n2C [Example 33, 7-ethoxy-1,3-dimethyl-6-phenyllumazine]	4.00	4.40	4.15
Cn1c(=O)c2nc(C=O)c(O)nc2n(C)c1=O [Example 45, 6-formyl-7-hydroxy-1,3-dimethyl-lumazine]	4.81	< 3.70	5.05
Cn1c(=O)c2ncc(/C=C/C=Cc3ccccc3)nc2n(C)c1=O [Example 23, 1,3-dimethyl-7-[(E)-4-(phenyl)butadienyl]-lumazine]	3.96	4.52	4.10
Cn1c(=O)c2nc(/C=C/c3cccnc3)cnc2n(C)c1=O [Example 6, 1,3-dimethyl-6-[(E)-2-(pyrid-3-yl)vinyl]lumazine]	3.96	4.52	3.96
Cn1c(=O)c2nc(C(Br)C(Br)c3ccccc3)cnc2n(C)c1=O (stereo not drawn) [Example 8, 6-(1,2-dibromo-2-phenylethyl)-1,3-dimethyllumazine]	–	4.82	5.81
Cn1c(=O)c2ncc(C(Br)C(Br)c3ccccc3)nc2n(C)c1=O (stereo not drawn) [Example 27, 7-(1,2-dibromo-2-phenylethyl)-1,3-dimethyllumazine]	–	4.92	7.00
Cn1c(=O)c2nc(C(Cl)Cl)c(SCc3ccccc3)nc2n(C)c1=O [Example 71, 6-dichloromethyl-7-mercaptobenzyl-1,3-dimethyl-lumazine]	< 4.70	4.25	< 4.70
COC(=O)C(Br)C(Br)c1cnc2c(=O)n(C)c(=O)n(C)c2n1 (stereo not drawn) [Example 25, 7-[1,2-dibromo-2-(methoxycarbonyl)ethyl)-1,3-dimethyllumazine]	–	5.72	–
Cn1c(=O)c2ncc(Cl)nc2n(C)c1=O [Example 31, 7-chloro-1,3-dimethyllumazine]	–	4.92	7.00
